# Reference: patent US20100204202A1, “DRUG FOR ALLEVIATING MOTOR COMPLICATIONS OR PSYCHIATRIC SYMPTOMS OF PARKINSON'S DISEASE” (Asubio Pharma Co., Ltd., priority 2007, published 2010)
# Entries after “also recorded” stand apart in the source; their conditions may differ. Where a name gives a salt, the structure may show the parent alone. Read-outs that look alike come from different tables or passages of the source.
# Key:
# [1] = target: T1, human dopamine D2L receptors (Homo sapiens, UniProt P14416); experiment: Agonist/antagonist assay, [35S]GTPgammaS binding, human dopamine D2L receptors; assay type: biochemical; details: for EC50 / Emax / IC50: Dopamine D2L; for antagonist activity (in words): human dopamine D2L receptors
# T1 construct: expressed in transfected cells; host or cells: CHO
# Protocol: For the tests, membrane specimens prepared from Chinese hamster ovary (CHO-K1) cells expressing human serotonin 1A receptors, Chinese hamster ovary (CHO) cells expressing human dopamine D2L receptors, Chinese hamster ovary (CHO) cells expressing human dopamine D2S receptors and Chinese hamster ovary (CHO) cells expressing human dopamine D3 receptors were used. In the agonist assays, for the serotonin 1A receptors, [^35S] GTPγS (final concentration 0.1 nM), a GDP solution (final concentration 3 μM), the test sample solution and a membrane specimen were added to a 20 mM Hepes-NaOH buffer (pH 7.4) containing 100 mM NaCl, 3 mM MgCl2 and 10 μg/mL saponin and allowed to react at 25° C. for 30 minutes. Further, for the dopamine (D2L, D2S and D3) receptors, [^35S] GTPγS (i.e., final concentration 0.1 nM), a GDP solution (final concentration 3 μM), the test sample solution and a membrane specimen were added to a 20 mM Hepes-NaOH buffer (pH 7.4) containing 100 mM NaCl, 10 mM MgCl2, 1 mM DTT and 1 mM EDTA and allowed to react at 30° C. for 15 minutes (in the case of D2L receptors) or for 30 minutes (in the cases of D2S and D3 receptors). Further, in the antagonist assays, except for adding to the reaction solutions 10 μM 5-carboxamide tryptamine (5-CT) (in the case of serotonin 1A receptors), 3 μM dopamine (in the cases of D2L and D2S receptors), or 0.1 μM dopamine (in the case of D3 receptors), operations were performed similar to the agonistic tests. After the end of the reaction, the reaction solution was filtered with a cell harvester, the filtered filter paper was transferred to a measurement vial, a liquid scintillator was added, and the radioactivity of the [^35S] GTPγS remaining on the filter paper was determined by a liquid scintillation counter. The human serotonin 1A receptor and human dopamine (D2L, D2S, and D3) receptor agonist/antagonist activities of the test sample were expressed as the rates of increase, when making the increase in [^35S] GTPγS bonds due to 10 μM 5-CT (in the case of serotonin 1A receptors), 3 μM dopamine (in the cases of D2L and D2S receptors), or 0.1 μM dopamine (in the case of D3 receptors) 100%. From the bond increasing rate, a regression formula was used to calculate the 50% reaction concentration (EC50) and 50% inhibition concentration (IC50).
# [2] = target: T2, human dopamine D3 receptors (Homo sapiens, UniProt P35462); experiment: Binding affinity test on human dopamine D3 receptors ([3H]spiperone, CHO membranes); details: for binding affinity (in words): human dopamine D3 receptors
# T2 construct: expressed in transfected cells; host or cells: CHO
# Protocol: For the test, membrane specimens prepared from Chinese hamster ovary (CHO) cells expressing human dopamine D3 receptors were used. To a 50 mM Tris-HCl buffer (pH 7.4) containing 1.4 mM ascorbic acid, 0.001% BSA, and 150 mM NaCl, [^3H] spiperone (final concentration 0.7 nM), the test sample solution and a membrane specimens were added. The reaction solution was allowed to react at 37° C. for 2 hours, then the reaction solution was filtered with a cell harvester, the filtered filter paper was transferred to a measurement vial, a liquid scintillator was added and the receptor bond radioactivity remaining on the filter paper was determined by a liquid scintillation counter.
# The following formula was used to calculate the binding inhibition rate: […]
# Furthermore, the inhibition constant (Ki) was calculated.
# [3] = test system: Parkinson's disease model rats; experiment: Hyperkinesia of the forelimbs and shortening of rotational behavior duration induced by repeated doses of levodopa; assay type: in vivo, rat; details: for rats that did not exhibit rotational behavior: 5 mg/kg oral
# Text: In rats with unilateral nigrostriatal dopamine nerve destruction generally used as Parkinson's disease animal models, it became clear that by administering levodopa by repeated dosage for about 5 weeks, behavior resembling the symptoms of advanced stage Parkinson's disease appeared. That is, in Parkinson's disease model rats prepared in the same way as in Example 4, along with repeated doses of levodopa, abnormal behavior such as involuntary extending of the forelimb or opening or closing of the hand, up-and-down movement of the wrist, choreiform tremor in the forelimb on the opposite side of microinjection of 6-hydroxydopamine was observed (FIG. 3). This abnormal behavior is reported by Steece-Collier et al. (Steece-Collier K. et al., “Embryonic mesencephalic grafts increase levodopa-induced forelimb hyperkinesia in parkinsonian rats”, Movement Disorders, 2003, 18, p. 1442-1454) as hyperkinesia of the forelimbs.
# This appears dependent on the period of repeated doses of levodopa and reportedly is similar to clinical dyskinesia. […] Bibbiani et al. (Bibbiani F. et al., “Serotonin 5-HT1A agonist improves motor complications in rodent and primate parkinsonian models”, Neurology, 2001, 57, p. 1829-1834) report that in Parkinson's disease model rats, along with repeated doses of levodopa, a shortening of the rotational behavior duration is observed and that this phenomenon resembles the wearing off phenomenon in clinical studies.
# That is, they treated each group by repeated doses of levodopa and repeated dosage of the tested substance for about 2 weeks (Monday to Friday) and observed the hyperkinesia of the forelimbs and rotational behavior after levodopa administration. Note that the SUN N4057 was subcutaneously administered right before levodopa administration, the sarizotan was orally administered about 20 minutes before levodopa dosage in accordance with above-mentioned known reports (Bibbiani F. et al., Neurology, 2001, 57, p. 1829-1834), and the Example Compound 4 of Japanese Patent Publication No. 2005-298402A was subcutaneously administered about 30 minutes before levodopa dosage in accordance with the above-mentioned Japanese Patent Publication No. 2005-298402A. Further, for the solvent, for SUN N4057 and Example Compound 4 of Japanese Patent Publication No. 2005-298402A, physiological saline was used.
# In the same way as Example 4, Parkinson's disease model rats were prepared and the rats treated by repeated doses of levodopa (twice a day, Monday to Friday) for 5 weeks and measured for hyperkinesia of the forelimbs and rotational behavior. Further, based on the results of the hyperkinesia of the forelimbs and rotational behavior duration, the rats were assigned to the groups so as to prevent any significant difference between them, then the effects of the tested substances on these behaviors resembling symptoms of advanced stage Parkinson's disease patients were compared and studied. […] Note that compound Ib (0.3, 1 mg/kg) and compound Ic (0.3, 1 mg/kg) were both intraperitoneally administered right before levodopa administration. For the solvent, physiological saline was used.
# [4] = 3 μM dopamine = 100%, read-out: Agonist assay Emax
# [5] = with 3 μM dopamine, read-out: Antagonist assay Emax
# [6] = 1, 3 mg/kg s.c. repeated 2 weeks
# [7] = 0.03, 0.1 mg/kg s.c. repeated 2 weeks
# T1 sequence (P14416 whole entry): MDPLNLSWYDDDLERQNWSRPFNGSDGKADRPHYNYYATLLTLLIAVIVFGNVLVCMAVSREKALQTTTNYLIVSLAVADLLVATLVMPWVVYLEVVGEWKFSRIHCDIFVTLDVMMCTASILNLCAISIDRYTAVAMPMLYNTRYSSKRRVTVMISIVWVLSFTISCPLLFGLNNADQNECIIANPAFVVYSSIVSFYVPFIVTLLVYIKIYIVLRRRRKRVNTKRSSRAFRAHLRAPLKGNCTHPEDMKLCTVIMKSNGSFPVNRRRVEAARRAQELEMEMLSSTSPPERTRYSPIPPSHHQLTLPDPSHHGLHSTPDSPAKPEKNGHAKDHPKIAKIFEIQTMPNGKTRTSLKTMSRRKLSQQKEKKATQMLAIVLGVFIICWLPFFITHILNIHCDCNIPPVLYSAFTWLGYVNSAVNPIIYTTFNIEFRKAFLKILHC
# T2 sequence (P35462 whole entry): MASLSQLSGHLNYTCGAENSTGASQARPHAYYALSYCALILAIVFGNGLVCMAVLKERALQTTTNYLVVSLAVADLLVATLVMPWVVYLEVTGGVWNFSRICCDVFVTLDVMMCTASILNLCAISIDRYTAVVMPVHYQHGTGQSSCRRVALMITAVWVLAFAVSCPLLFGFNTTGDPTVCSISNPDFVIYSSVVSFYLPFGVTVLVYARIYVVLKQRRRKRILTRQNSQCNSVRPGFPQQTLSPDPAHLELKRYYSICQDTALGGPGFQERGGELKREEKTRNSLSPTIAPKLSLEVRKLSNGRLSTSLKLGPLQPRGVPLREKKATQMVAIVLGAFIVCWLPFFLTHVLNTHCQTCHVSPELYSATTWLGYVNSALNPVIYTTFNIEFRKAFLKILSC
EC50 [1] [nM],"Emax [1, 4] [%]",IC50 ([1]; with 3 μM dopamine) [nM],"Emax [1, 5] [%]",antagonist activity (in words) [1],binding affinity (in words) [2],SMILES,"Ki ([2]; Dopamine D3, read-out: Ki) [nM]",further results
> 500,18,72.9,75,antagonist activity,comparatively strong binding affinity,"Cl.Cl.O=c1[nH]c2cccc(C3CCCN(Cc4cncc(-c5ccc(F)cc5)c4)C3)c2o1 (stereo not shown) [7-(1-{[5-(4-fluorophenyl)pyridin-3-yl]methyl}piperidin-3-yl)-1,3-benzoxazol-2(3H)-one dihydrochloride]",9.07,"rotational behavior duration ([3]; 3 mg/kg s.c. repeated 2 weeks): significant prolongation; end of the rotational behavior [3, 6]: prolonged; start of rotational behavior [3, 6]: started earlier; hyperkinesia of the forelimbs ([3]; 1, 3 mg/kg s.c. repeated 2 weeks, vs physiological saline group, dihydrochloride): no action was exhibited; also recorded: no significant difference"
> 500,2,13.3,101,antagonist activity,comparatively strong binding affinity,"Cl.Cl.Fc1ccc(-c2cncc(CNC[C@H]3CCc4ccccc4O3)c2)cc1 [Sarizotan, 1-[(2R)-3,4-dihydro-2H-chromen-2-yl]-N-{[5-(4-fluorophenyl)pyridin-3-yl]methyl}methanamine dihydrochloride]",,"Ki [2]: 3.48 nM; rotational behavior duration ([3]; 5 mg/kg oral repeated 2 weeks): significant shortening; hyperkinesia of the forelimbs ([3]; 5 mg/kg oral repeated 2 weeks, 1 hour after levodopa dosage, p=0.099): tendency of the hyperkinesia of the forelimbs to be inhibited; rats that did not exhibit rotational behavior ([3]; 30 minutes after levodopa dosage): Six out of nine; rats that did not exhibit rotational behavior ([3]; 1 hour after levodopa dosage): three out of nine; start of rotational behavior due to levodopa dosage ([3]; 1 and 5 mg/kg oral repeated 2 weeks): delay in the start of rotational behavior; hyperkinesia of the forelimbs, compared with the solvent group (Dunnett's test) ([3]; repeated oral administration, week 7 of levodopa): no significant difference"

SMILES,EC50 [1] [nM],"Emax [1, 4] [%]",IC50 ([1]; with 3 μM dopamine) [nM],"Emax [1, 5] [%]",antagonist activity (in words) [1],binding affinity (in words) [2],"Ki ([2]; Dopamine D3, read-out: Ki) [nM]",further results
"O=C1c2ccccc2OC=C(Cl)N1CCCCN1CC=C(c2ccccn2)CC1 [SUN N4057, 3-chloro-4,5-dihydro-4-{4-[4-(2-pyridyl)-1,2,3,6-tetrahydropyridin-1-yl]butyl}-1,4-benzoxazepin-5-one.dihydrochloride-dihydrate]",> 500,27,> 500,47,does not have an antagonist action,,42.8,"hyperkinesia of the forelimbs ([3]; 0.03 mg/kg s.c. repeated 2 weeks, 1 hour after levodopa dosage): significantly inhibited; hyperkinesia of the forelimbs ([3]; 0.1 mg/kg s.c. repeated 2 weeks, 1 and 2 hours after levodopa dosage): significantly inhibited; end of the rotational behavior [3, 7]: significantly prolonged; rotational behavior duration [3, 7]: significantly prolonged"
